Values of other authors in patent US20050118235A1, “Dietary non-essential amino acid tyrosine regulates the body weight of animals through regulating the animal appetite or food intake” (priority 2003, published 2005).

Test system: activity anorexia in mice
Details: tyrosine injection, activity anorexia in mice (Avraham et al. 2001)

N[C@@H](Cc1ccc(O)cc1)C(=O)O [Tyrosine]
effect on appetite, cognition and exercise tolerance: improves appetite, cognition, and exercise tolerance
